Results: US20240279218A1 (Hoffmann-La Roche Inc., priority 2016, published 2024)

Assays:
h-GABA-A α5β3γ2 [1] = target: T1, h-GABA-A α5β3γ2 (Homo sapiens (Human), UniProt P18507+P31644); experiment: Two-electrode voltage clamp electrophysiology in Xenopus oocytes expressing GABAA receptors, modulation of GABA EC20 current; assay type: cell-based; conditions: Xenopus oocytes; for Efficacy (GABA) %: % modulation of GABA EC20 = 100*(Fold increase−1); for Fold increase h-GABA-A α5β3γ2 oocyte: GABA EC20, test compound at approx. 30 fold its Ki
Protocol: Xenopus laevis oocytes at maturation stages V-VI were used for the expression of cloned mRNA encoding GABAA receptor subunits. Oocytes ready for RNA micro-injection were bought from Ecocyte, Castrop-Rauxel, Germany and stored in modified Barth's medium (composition in mM: NaCl 88, KCl 1, NaHCO32.4, HEPES 10, MgSO4 0.82, CaNO3 0.33, CaCl2) 0.33, pH=7.5) at 20° C. until the experiment.
Oocytes were plated in 96-well plates to be used in an automated instrument (Robo-ocyte, MultiChannelSystems, Reutlingen, Germany) for microinjection and electrophysiological recordings. Approximately 50 nl of an aqueous solution containing the RNA transcripts for the subunits of the desired GABAA receptor was injected into each oocyte. RNA concentrations ranged between 0.3 and 16 ng/μl/subunit and were adjusted in pilot experiments to obtain GABA responses of a suitable size and a maximal effect of the reference modulator, Beta-CCM (β-CCM), a betacarboline negative allosteric modulator (NAM) at the GABAA receptor benzodiazepine (BZD) binding site or Midazolam, a benzodiazepine positive allosteric modulator (PAM) at the GABAA receptor benzodiazepine (BZD) binding site. The concentration of the γ2 subunit encoding RNA usually was 5-to 10-fold higher than the RNAs encoding the other subunits. Oocytes were kept in modified Barth's medium (composition in mM: NaCl 88, KCl 1, NaHCO3 4, HEPES 10, MgSO4 0.82, CaNO3 0.33, CaCl2 0.33, pH=7.5) at 20° C. until the experiment.
Electrophysiological experiments were performed on days 3 to 5 after the micro-injection of mRNA. During the experiment the oocytes were constantly superfused by a solution containing (in mM) NaCl 90, KCl 1, HEPES 5, MgCl2 1, CaCl2 1 (pH 7.4). Oocytes were impaled by two glass microelectrodes (resistance: 0.4 MΩ) which were filled with a solution containing KCl 1M+K-acetate 1.5 M and voltage-clamped to −80 mV. The recordings were performed at room temperature using the Roboocyte two-electrode voltage clamp system (Multichannelsystem). After an initial equilibration period of 1.5 min GABA was added for 1.5 min at a concentration evoking approximately 20% of a maximal current response (EC20). After another rest interval of 2.5 min GABA was again added evoking a response of similar amplitude and shape. […] Current traces were recorded at a digitization rate of 10 Hz during and shortly before and after the GABA application.
Each compound and concentration was tested on at least 3 oocytes.
For the analysis, the digitized current traces of the first and second GABA response were superimposed and, if necessary, rescaled to equal maximal amplitudes. The ratio between the two responses during the time interval of test compound application was calculated point by point. The extremum of the resulting “ratio trace” was taken as the efficacy (“Fold increase”) of the compound expressed as “% modulation of GABA EC20” (100*(Fold increase−1)).

h-GABA-A α5β3γ2 [2] = target: T1, h-GABA-A α5β3γ2; experiment: [3H]flumazenil competition binding assay, membranes of HEK293 cells expressing human GABAA receptors; conditions: displacement of [3H]flumazenil 0.5 nM, HEK293 cells expressing human receptors, mean of two determinations; read-out: Ki h-GABA-A α5β3γ2
Protocol: The affinity of compounds at GABAA receptor subtypes was measured by competition for [3H]flumazenil (85 Ci/mmol; Roche) binding to HEK293 cells expressing rat (stably transfected) or human (transiently transfected) receptors of composition α1β3γ2, α2β3γ2, α3β3γ2 and α5β3γ2.
Cell pellets were suspended in Krebs-tris buffer (4.8 mM KCl, 1.2 mM CaCl2, 1.2 mM MgCl2, 120 mM NaCl, 15 mM Tris; pH 7.5; binding assay buffer), homogenized by polytron for ca. 20 sec on ice and centrifuged for 60 min at 4° C. (50000 g; Sorvall, rotor: SM24=20000 rpm). The cell pellets were resuspended in Krebs-tris buffer and homogenized by polytron for ca. 15 sec on ice. Protein was measured (Bradford method, Bio-Rad) and aliquots of 1 mL were prepared and stored at −80° C.
Assays were incubated to equilibrium for 1 hour at 4° C. and harvested onto GF/C uni-filters (Packard) by filtration using a Packard harvester and washing with ice-cold wash buffer (50 mM Tris; pH 7.5). After drying, filter-retained radioactivity was detected by liquid scintillation counting. Ki values were calculated using Excel-Fit (Microsoft) and are the means of two determinations.

## CNC(=O)c1ccc(OCc2c(-c3ccc(C)nc3)noc2C)nc1F [Example 136, 2-fluoro-N-methyl-6-((5-methyl-3-(6-methylpyridin-3-yl)isoxazol-4-yl)methoxy)pyridine-3-carboxamide]
h-GABA-A α5β3γ2 [1]
  Efficacy (GABA) %: 54%
  Fold increase h-GABA-A α5β3γ2 oocyte: 1.54
h-GABA-A α5β3γ2 [2]
  Ki: 14.8 nM

## Cc1ccc(-c2noc(C)c2COc2ccc(C(=O)N[C@H]3C[C@H](OCC(F)F)C3)nn2)cn1 [Example 170, trans-N-3-((2,2-difluoroethoxy)cyclobutyl)-6-((5-methyl-3-(6-methylpyridin-3-yl)isoxazol-4-yl)methoxy)pyridazine-3-carboxamide]
h-GABA-A α5β3γ2 [1]
  Efficacy (GABA) %: 60%
  Fold increase h-GABA-A α5β3γ2 oocyte: 1.6
h-GABA-A α5β3γ2 [2]
  Ki: 8.8 nM

## Cc1ccc(-c2noc(C)c2COc2ccc(C(=O)NC3(C)CCOCC3)nn2)cn1 [Example 97, 6-((5-methyl-3-(6-methylpyridin-3-yl)isoxazol-4-yl)methoxy)-N-(4-methyltetrahydropyran-4-yl)pyridazine-3-carboxamide]
h-GABA-A α5β3γ2 [1]
  Efficacy (GABA) %: 71%
  Fold increase h-GABA-A α5β3γ2 oocyte: 1.71
h-GABA-A α5β3γ2 [2]
  Ki: 13.6 nM

## Cc1onc(-c2ccc(C3CC3)nc2)c1COc1ccc(C(=O)NC2CCS(=O)(=O)CC2)cn1 [Example 130, 6-((3-(6-cyclopropyl-3-pyridyl)-5-methyl-isoxazol-4-yl)methoxy)-N-(1,1-dioxothian-4-yl)pyridine-3-carboxamide]
h-GABA-A α5β3γ2 [1]
  Efficacy (GABA) %: 128%
  Fold increase h-GABA-A α5β3γ2 oocyte: 2.28
h-GABA-A α5β3γ2 [2]
  Ki: 30.4 nM

## Cc1onc(-c2ccc(Cl)nc2)c1COc1ccc(C(=O)NC2(C)COC2)nn1 [Example 161, 6-((3-(6-chloropyridin-3-yl)-5-methylisoxazol-4-yl)methoxy)-N-(3-methyloxetan-3-yl)pyridazine-3-carboxamide]
h-GABA-A α5β3γ2 [1]
  Efficacy (GABA) %: 60%
  Fold increase h-GABA-A α5β3γ2 oocyte: 1.6
h-GABA-A α5β3γ2 [2]
  Ki: 8 nM

## CCC[C@@H](CO)NC(=O)c1cnc(OCc2c(-c3ccc(C)nc3)noc2C)cn1 [Example 14, N-((1S)-1-(hydroxymethyl)butyl)-5-((5-methyl-3-(6-methyl-3-pyridyl)isoxazol-4-yl)methoxy)pyrazine-2-carboxamide]
h-GABA-A α5β3γ2 [1]
  Efficacy (GABA) %: 160%
  Fold increase h-GABA-A α5β3γ2 oocyte: 2.6
h-GABA-A α5β3γ2 [2]
  Ki: 74.5 nM

## Cc1ccc(-c2noc(C)c2COc2ccc(C(=O)NC3CC4(C3)CC(F)(F)C4)nn2)cn1 [Example 167, N-(6,6-difluorospiro[3.3]heptan-2-yl)-6-((5-methyl-3-(6-methylpyridin-3-yl)isoxazol-4-yl)methoxy)pyridazine-3-carboxamide]
h-GABA-A α5β3γ2 [1]
  Efficacy (GABA) %: 64%
  Fold increase h-GABA-A α5β3γ2 oocyte: 1.64
h-GABA-A α5β3γ2 [2]
  Ki: 19.1 nM

## CCOC(=O)C1(NC(=O)c2ccc(OCc3c(-c4ccc(C)nc4)noc3C)nn2)CC1 [Example 68, ethyl 1-(6-((5-methyl-3-(6-methylpyridin-3-yl)isoxazol-4-yl)methoxy)pyridazine-3-carboxamido)cyclopropanecarboxylate]
h-GABA-A α5β3γ2 [1]
  Efficacy (GABA) %: 72%
  Fold increase h-GABA-A α5β3γ2 oocyte: 1.72
h-GABA-A α5β3γ2 [2]
  Ki: 56.2 nM

## CCC[C@@H](CO)NC(=O)c1ccc(OCc2c(-c3ccc(C)nn3)noc2C)nc1 [Example 109, N-((1S)-1-(hydroxymethyl)butyl)-6-((5-methyl-3-(6-methylpyridazin-3-yl)isoxazol-4-yl)methoxy)pyridine-3-carboxamide]
h-GABA-A α5β3γ2 [1]
  Efficacy (GABA) %: 42%
  Fold increase h-GABA-A α5β3γ2 oocyte: 1.42
h-GABA-A α5β3γ2 [2]
  Ki: 0.8 nM

## Cc1ccc(-c2noc(C)c2COc2cc3c(cn2)C(=O)N(CCO)C3)cn1 [Example 12, 2-(2-hydroxyethyl)-6-((5-methyl-3-(6-methylpyridin-3-yl)isoxazol-4-yl)methoxy)-1H-pyrrolo[3,4-c]pyridin-3(2H)-one]
h-GABA-A α5β3γ2 [1]
  Efficacy (GABA) %: 74%
  Fold increase h-GABA-A α5β3γ2 oocyte: 1.74
h-GABA-A α5β3γ2 [2]
  Ki: 16.3 nM

## Cc1ccc(-c2noc(C)c2COc2ccc(C(=O)NC3(C)CCC3)nn2)cn1 [Example 118, 6-((5-methyl-3-(6-methylpyridin-3-yl)isoxazol-4-yl)methoxy)-N-(1-methylcyclobutyl)pyridazine-3-carboxamide]
h-GABA-A α5β3γ2 [1]
  Efficacy (GABA) %: 88%
  Fold increase h-GABA-A α5β3γ2 oocyte: 1.88
h-GABA-A α5β3γ2 [2]
  Ki: 12.3 nM

## Cc1ccc(-c2noc(C)c2COc2ccc(C(=O)N[C@H]3CCS(=O)(=O)C3)cn2)cn1 [Example 19, N-((3S)-1,1-dioxothiolan-3-yl)-6-((5-methyl-3-(6-methylpyridin-3-yl)-1,2-oxazol-4-yl)methoxy)pyridine-3-carboxamide]
h-GABA-A α5β3γ2 [1]
  Efficacy (GABA) %: 77%
  Fold increase h-GABA-A α5β3γ2 oocyte: 1.77
h-GABA-A α5β3γ2 [2]
  Ki: 5.2 nM

## Cc1ccc(-c2noc(C3CC3)c2COc2ccc(C(=O)NC3CCOCC3)cn2)cn1 [Example 6, 6-((5-cyclopropyl-3-(6-methyl-3-pyridyl)isoxazol-4-yl)methoxy)-N-tetrahydropyran-4-yl-pyridine-3-carboxamide]
h-GABA-A α5β3γ2 [1]
  Efficacy (GABA) %: 167%
  Fold increase h-GABA-A α5β3γ2 oocyte: 2.67
h-GABA-A α5β3γ2 [2]
  Ki: 54.1 nM

## Cc1ccc(-c2noc(C)c2COc2cc3c(cn2)C(=O)N(CC(C)C)C3)cn1 [Example 9, 2-isobutyl-6-((5-methyl-3-(6-methylpyridin-3-yl)isoxazol-4-yl)methoxy)-1H-pyrrolo[3,4-c]pyridin-3(2H)-one]
h-GABA-A α5β3γ2 [1]
  Efficacy (GABA) %: 62%
  Fold increase h-GABA-A α5β3γ2 oocyte: 1.62
h-GABA-A α5β3γ2 [2]
  Ki: 13.7 nM

## CCNC(=O)c1ccc(OCc2c(-c3ccc(C)nc3)noc2C)nn1 [Example 37, N-ethyl-6-((5-methyl-3-(6-methylpyridin-3-yl)isoxazol-4-yl)methoxy)pyridazine-3-carboxamide]
h-GABA-A α5β3γ2 [1]
  Efficacy (GABA) %: 73%
  Fold increase h-GABA-A α5β3γ2 oocyte: 1.73
h-GABA-A α5β3γ2 [2]
  Ki: 7.6 nM

## Cc1ccc(-c2noc(C)c2COc2ccc(C(=O)N3CC4(COC4)C3)nn2)cn1 [Example 61, (6-((5-methyl-3-(6-methylpyridin-3-yl)isoxazol-4-yl)methoxy)pyridazin-3-yl)(2-oxa-6-azaspiro[3.3]heptan-6-yl)methanone]
h-GABA-A α5β3γ2 [1]
  Efficacy (GABA) %: 58%
  Fold increase h-GABA-A α5β3γ2 oocyte: 1.58
h-GABA-A α5β3γ2 [2]
  Ki: 7.1 nM

## Cc1ccc(-c2noc(C)c2COc2ccc(C(=O)N[C@H]3C[C@H](OC4CC4)C3)nn2)cn1 [Example 175, trans-N-(3-cyclopropoxycyclobutyl)-6-((5-methyl-3-(6-methylpyridin-3-yl)isoxazol-4-yl)methoxy)pyridazine-3-carboxamide]
h-GABA-A α5β3γ2 [1]
  Efficacy (GABA) %: 82%
  Fold increase h-GABA-A α5β3γ2 oocyte: 1.82
h-GABA-A α5β3γ2 [2]
  Ki: 10.1 nM

## Cc1ccc(-c2noc(C3CC3)c2COc2ccc(C(=O)NC3CCOCC3)nn2)cn1 [Example 183, 6-((5-cyclopropyl-3-(6-methylpyridin-3-yl)isoxazol-4-yl)methoxy)-N-(tetrahydropyran-4-yl)pyridazine-3-carboxamide]
h-GABA-A α5β3γ2 [1]
  Efficacy (GABA) %: 213%
  Fold increase h-GABA-A α5β3γ2 oocyte: 3.13
h-GABA-A α5β3γ2 [2]
  Ki: 56.7 nM

## Cc1ccc(-c2noc(C)c2COc2cc3c(cn2)C(=O)N(C2CCSCC2)C3)cn1 [Example 107, 6-((5-methyl-3-(6-methylpyridin-3-yl)isoxazol-4-yl)methoxy)-2-(tetrahydro-2H-thiopyran-4-yl)-1H-pyrrolo[3,4-c]pyridin-3(2H)-one]
h-GABA-A α5β3γ2 [1]
  Efficacy (GABA) %: 69%
  Fold increase h-GABA-A α5β3γ2 oocyte: 1.69
h-GABA-A α5β3γ2 [2]
  Ki: 9.6 nM
